Key:
[1] = tested on: normal human fibroblasts (BJ); experiment: Cytotoxicity assay (Alamar Blue), BJ; assay type: cell-based; settings: BJ cells, 72 h of treatment, in DMF
Protocol: (§1) All new platinum(II) complexes were screened for cytotoxic activity against following tumor cell lines: T-lymphoblastic leukemia (CEM), epithelial breast carcinoma (MCF7), and cervical carcinoma cell lines (HeLa) (Table 2). A control of cytotoxicity was done with normal human fibroblasts (BJ) and human umbilical vein endothelial cells (HUVEC). The cytotoxicity of all substances in BJ and HUVEC was very similar. […] Its sensitivity against HeLa cell line (7.0 µM) was better than that of cisplatin (11.4 µM). However, the toxicity of 23a against normal human cells (BJ and HUVEC) was similar to that of cisplatin. […] Taking into account lack of activity of cholic and hyodeoxycholic acids-based complexes at studied concentrations (against all tested cell lines IC50 > 50 µM) we can suppose that modifications of bile acids should be focused on the most lipophilic lithocholic acid derivatives. The results presented here provide an inspiration for further studies in this area.
(§2) Cisplatin derivatives were evaluated for their cytotoxic activities in vitro in following cell lines derived from various tumors: T-lymphoblastic leukemia (CEM), epithelial breast carcinoma (MCF7) and cervical carcinoma cell lines (HeLa) (all from ECACC, UK) and also in normal human fibroblasts (BJ; from ATCC, USA). Human umbilical vein endothelial cells (HUVEC) were a kind gift from Prof Jitka Ulrichová (Medical Faculty, Palacký University, Olomouc, Czech Republic). HUVEC were grown in ECPM medium (Provitro, Berlin, Germany). Six serial 3-fold dilutions in triplicate of each drug in DMF was administered in every cell line for 72 h. Alamar Blue dye was used for staining of living cells only. IC50 values (50% inhibitory concentrations) were calculated as the proportions of surviving cells. A detailed procedure for the cytotoxicity assay was described previously, except for using Alamar Blue dye instead of Calcein AM [37]. Briefly, the percentage of surviving cells in each well was calculated by dividing the intensity of the fluorescence signals from the exposed wells by the intensity of signals from control wells and multiplying by 100. These ratios were then used to construct dose–response curves, from which IC50 values, i.e., concentrations of the respective compounds that were lethal to 50% of the tumor cells, were calculated. The results obtained from cytotoxicity assays are shown in Table 2 (mean values ± SD obtained from three independent experiments performed in triplicate).

[2] = tested on: cervical carcinoma cell lines (HeLa); experiment: Cytotoxicity assay (Alamar Blue), HeLa; assay type: cell-based, human; settings: HeLa cells, 72 h of treatment, in DMF
Protocol: as §1, §2

[3] = tested on: epithelial breast carcinoma (MCF7); experiment: Cytotoxicity assay (Alamar Blue), MCF7; assay type: cell-based, human; settings: MCF7 cells, 72 h of treatment, in DMF
Protocol: as §1, §2

[4] = tested on: human umbilical vein endothelial cells (HUVEC); experiment: Cytotoxicity assay (Alamar Blue), HUVEC; assay type: cell-based; settings: 72 h of treatment, in DMF
Protocol: as §1, §2

[5] = tested on: T-lymphoblastic leukemia (CEM); experiment: Cytotoxicity assay (Alamar Blue), CEM; assay type: cell-based, human; settings: CEM cells, 72 h of treatment, in DMF
Protocol: as §1, §2

[6] = test done at temperature 37 °C due to solubility problems

With `C[C@H](CCCNCCN)[C@H]1CC[C@H]2[C@@H]3CCC4C[C@H](O)CC[C@]4(C)[C@H]3CC[C@]12C` (stereo partly drawn) the melting point was 107 to 110 °C.

Compound `C[C@H](CCCNCCN)[C@H]1CC[C@H]2[C@@H]3CCC4C[C@H](O)CC[C@]4(C)[C@H]3C[C@H](O)[C@]12C` (stereo partly drawn) has a melting point of 70 to 72 °C.

With `C[C@H](CCCNCCN)[C@H]1CC[C@H]2[C@@H]3C[C@H](O)C4C[C@H](O)CC[C@]4(C)[C@H]3CC[C@]12C` (stereo partly drawn) the melting point was 72 to 74 °C.

Compound `C[C@H](CCCNCCCN)[C@H]1CC[C@H]2[C@@H]3CCC4C[C@H](O)CC[C@]4(C)[C@H]3CC[C@]12C` (stereo partly drawn) has a melting point of 92 to 94 °C.

With `C[C@H](CCCNCCCN)[C@H]1CC[C@H]2[C@@H]3CCC4C[C@H](O)CC[C@]4(C)[C@H]3C[C@H](O)[C@]12C` (stereo partly drawn) the melting point was 64 to 66 °C.

Work on `N.N.[Cl][Pt][Cl]` [cisplatin] yielded an IC50 ([1]; mean ± S.D.) of 6.9 ± 0.9 µM, an IC50 ([2]; mean ± S.D.) of 11.4 ± 3.8 µM and an IC50 ([3]; mean ± S.D.) of 7.7 ± 1.7 µM. It also gave an IC50 ([4]; mean ± S.D.) of 5.5 ± 1.1 µM and an IC50 ([5]; mean ± S.D.) of 0.8 ± 0.1 µM.

With “cis-Dichloro-24-[(N-2′-aminoeth-1′-yl-κN)aminocholan-3α-ol-κN]platinum(II) [22a]” the IC50 [1, 6] was > 50 µM, the IC50 [2, 6] was > 50 µM and the IC50 [3, 6] was > 50 µM. The IC50 [4, 6] was > 50 µM and the IC50 [5, 6] was 40.2 ± 2.6 µM.

For “cis-Dichloro-24-[(N-2′-aminoeth-1′-yl-κN)aminocholane-3α,12α-diol-κN]platinum(II) [22b]”, the IC50 ([1]; mean ± S.D.) was 36.6 ± 5.1 µM, the IC50 ([2]; mean ± S.D.) was 35.5 ± 5.3 µM and the IC50 ([3]; mean ± S.D.) was 20.5 ± 3.1 µM. The IC50 ([4]; mean ± S.D.) was 38.2 ± 0.6 µM and the IC50 ([5]; mean ± S.D.) was 37.1 ± 6.8 µM.

Work on “cis-Dichloro-24-[(N-3′-aminoprop-1′-yl-κN)aminocholan-3α-ol-κN]platinum(II) [23a]” yielded an IC50 ([1]; mean ± S.D.) of 6.3 ± 0.8 µM, an IC50 ([2]; mean ± S.D.) of 7 ± 0.2 µM and an IC50 ([3]; mean ± S.D.) of 7 ± 0.5 µM. It also gave an IC50 ([4]; mean ± S.D.) of 6.9 ± 0.6 µM and an IC50 ([5]; mean ± S.D.) of 3.6 ± 0.1 µM.

Compound “cis-Dichloro-24-[(N-3′-aminoprop-1′-yl-κN)aminocholane-3α,12α-diol-κN]platinum(II) [23b]” has an IC50 ([1]; mean ± S.D.) of 42.5 ± 3.2 µM, an IC50 ([2]; mean ± S.D.) of 36.2 ± 4.3 µM and an IC50 ([3]; mean ± S.D.) of 23.3 ± 4.7 µM. For the same compound, the IC50 ([4]; mean ± S.D.) was 34.4 ± 5.6 µM and the IC50 ([5]; mean ± S.D.) was 31.6 ± 3.5 µM.

Source: paper PMC7036801, “Synthesis of New Cisplatin Derivatives from Bile Acids” (Molecules, 2020)
